Here are results for 1 compound from patent US6355624B1, “Measurement of plasma volume” (University Wales College of Medicine, priority 1997, dated 2002).

Values joined by “and” are separate entries in the source; they are usually repeats but may differ in a detail not shown here. Identical values can stand only once.

The nature of series [1]: Volume of distribution of FITC-Elohaes compared with Evans Blue labelled albumin in healthy and endotoxic newborn piglets. Conditions: approx 1.0 mg/kg, individual piglets and mean; for Vd: pig, in vivo, iv, 1 mg/kg. The method, then: Seventeen piglets were used in this study. The animals were randomised into two groups, a healthy (control) group and an Escherichia coli (endotoxic) group. The animals of the endotoxic group received a bolus injection of E. coli (1.667 μg/kg), followed by a continuous infusion of E. coli (1.667 μg/kg/hr) throughout the experiment. The control group received the same dose of isotonic saline injection and infusion. Approximately 30 minutes thereafter, a sample of blood (0.6 ml) was obtained from the femoral vein catheter prior to injection of the plasma marker. A volume between 0.5 ml and 1.0 ml of the indicator was injected {of approximately 1.0 mg/kg for both plasma markers} via the femoral vein catheter into the bloodstream. The catheter was then flushed clean with an equal volume of isotonic saline. […] As before, following the withdrawal of each sample, the catheter was flushed with an equal volume of isotonic saline. Samples were obtained at various time intervals over a 6 hour period, the majority were collected within the first hour after administration of the plasma marker. Blood samples were then centrifuged at approximately 2500 r.p.m for 10-15 minutes and plasma/serum withdrawn.

A short description of series [2]: Volume of distribution (plasma volume) of FITC-Elohaes compared to Evans Blue labelled albumin in healthy rabbits. Conditions: both, rabbit, in vivo, 0.2 mg/ml.
Procedure: All rabbits used were adults of either sex, weighing approximately 3 kg. Both ears of the rabbit were first anaesthetised by topical application of Elma cream about 30 minutes prior to commencement of the procedure. A small cut was made into the left ear vein, using a scalpel, to enable relatively simple blood sampling. A sample of blood (approximately 1.0 ml) was obtained from the cut ear vein and collected into tubes coated with anti-coagulant (EDTA). […] A mixing time of at least 5 minutes was allowed before blood sampling began. Blood samples (≈1.0 ml) were then withdrawn at various time intervals following injection, up to a maximum of 2 days. Most samples were collected within the first 3 hours and no more than 9 post-injection blood samples were taken from each rabbit. The blood samples were then centrifuged {Centaur 2} at 2300 r.p.m. for 10-15 minutes and the plasma withdrawn.
The minimisation procedure was obtained from the NAG library {Numerical Algorithms Group, Oxford; Routine E04FCF:NAGFLIB:1652/0: Mk7: December 1978}. This routine was called by a programme, written by the user and incorporated a subroutine with the appropriate mathematical equation. […]
Thus, the volume of distribution was calculated from the degree of dilution (El-Sayed et al., 1995).
Setting [3] is: endotoxic (E. coli) newborn piglets.

In general, Vd refers to the apparent volume that relates the amount in the body to the concentration in plasma or blood. Lower therefore signals little distribution into tissue.

On to `Cc1cc(-c2ccc(/N=N/c3ccc4c(S(=O)(=O)O)cc(S(=O)(=O)O)c(N)c4c3O)c(C)c2)ccc1/N=N/c1ccc2c(S(=O)(=O)O)cc(S(=O)(=O)O)c(N)c2c1O` [Evans Blue], for which the VD in series [1] (setting [3]) was 0.1401 L/kg and 0.0917 L/kg and 0.1138 L/kg and 0.1129 L/kg and 0.0783 L/kg; in series [1] (healthy newborn piglets), 0.0851 L/kg and 0.0862 L/kg and 0.0835 L/kg and 0.0869 L/kg. In addition, the figures for the Vd in series [1] (setting [3]), in series [1] (healthy newborn piglets) and in series [2] were 0.0983 L/kg, 0.0896 L/kg and 0.0531 L/kg, respectively.
